Data: publication PMC6976569, “Structural basis of subtype-selective competitive antagonism for GluN2C/2D-containing NMDA receptors” (Nature Communications, 2020)
“And” between values parts separate entries of the source, which are not always exact repeats. Identical values can stand only once. Like-named read-outs stand apart in the source and are kept apart here.

How the values were obtained:
[1] = system: GluN2A-Lys738Met; set-up: method as in PMID 24462099; conditions: cited from earlier work
[2] = biological target: GluN2A-containing receptors; conditions: cited from earlier work
[3] = system: GluN1/GluN2B/GluN2D triheteromers; set-up: method as in Brothwell et al., 2008; Suárez et al., 2010; conditions: substantia nigra pars compacta; ref Brothwell et al., 2008; Suárez et al., 2010; cited from earlier work
[4] = system: GluN2C/2D-containing NMDARs; conditions: cited from earlier work; for GluN2C/2D preference over GluN2A/2B: allosteric inhibitors
[5] = system: GluN1/GluN2B/GluN2D triheteromers; set-up: method as in Volianskis et al., 2013; conditions: hippocampus, at concentrations selective for GluN2D; ref Volianskis et al., 2013; cited from earlier work
[6] = system: tPA-promoted neurotoxicity; set-up: method as in Jullienne et al, 2011; conditions: given i.v.; only active where the blood brain barrier was compromised; ref Jullienne et al, 2011; cited from earlier work
[7] = system: GluN2D-containing receptors; conditions: cited from earlier work
[8] = biological target: GluA2; set-up: method as in PMID 24462099; conditions: cited from earlier work
[9] = biological target: GluK1; set-up: method as in PMID 24462099; conditions: cited from earlier work
[10] = biological target: GluN2B-containing receptors; set-up: method as in earlier work; conditions: TEVC; ref 1-3 (supplementary references); cited from earlier work
[11] = biological target: GluN2C-containing receptors; conditions: cited from earlier work
[12] = biological target: T1, GluN1-4a/GluN2D Met763Lys/Lys766Arg NMDARs (Rattus norvegicus, UniProt P35439+Q62645, K766R/M763K); experiment: TEVC electrophysiology on oocytes expressing GluN1-4a/GluN2D Met763Lys/Lys766Arg; type: cell-based
T1 construct: expressed in transfected cells; host or cells: Xenopus laevis oocytes injected with cRNA
Text: (§1) To test the validity of the structural observation for the critical involvement of the methionine/lysine residue combination (GluN2D-Met763/Lys766, and GluN2A-4m-Met738/Lys741) in preferential binding of UBP791 to GluN2D over GluN2A, we conducted site-directed mutagenesis and assessed inhibition potencies of the mutant channels by TEVC. Specifically, we converted the GluN2D residues to the equivalent ones in the GluN2A subunit and measured macroscopic currents of the GluN1-4a/GluN2D mutant NMDARs.
(§2) Plasmids (pSP or pCI_NEO) harboring rat GluN1 or GluN2 full-length subunits were linearized by restriction digestion and transcribed according to the manufacturer’s instructions (mMESSAGE mMachine SP6 or T7 kit, ThermoFisher Scientific). Recombinant rat GluN1-4a and GluN2 were expressed by co-injecting cRNA at a 1:2 (w/w) ratio into defolliculated X. laevis oocytes (amounts varied from 0.05–25 ng per oocyte). Two-electrode voltage-clamp recordings were performed 1–3 days after injection using agarose-tipped microelectrodes (0.4–1.2 MΩ) filled with 3 M KCl at a holding potential of −60 mV. The bath solution contained 5 mM HEPES, 100 mM NaCl, 0.3 mM BaCl2, 10 mM Tricine, at pH 7.4 (adjusted with KOH). […] For the statistical evaluation, we implemented pairwise F-tests to test variances, and then performed the Student t test with equal or unequal variances as determined previously, and accounted for multiple testing with the Bonferroni correction.

[13] = biological target: T2, GluN1-4a/GluN2D Lys766Arg NMDARs (Rattus norvegicus, UniProt P35439+Q62645, K766R); experiment: TEVC electrophysiology on oocytes expressing GluN1-4a/GluN2D Lys766Arg; type: cell-based
T2 construct: expressed in transfected cells; host or cells: Xenopus laevis oocytes injected with cRNA
Text: as §1, §2

[14] = biological target: T3, GluN1-4a/GluN2D NMDARs (Rattus norvegicus, UniProt P35439+Q62645); experiment: TEVC electrophysiology on Xenopus laevis oocytes expressing GluN1-4a/GluN2D; type: cell-based
T3 construct: expressed in transfected cells; host or cells: Xenopus laevis oocytes injected with cRNA
Text: (§3) The chemical definition of UBP791 used in this study is a cis-racemic mixture of (2S,3R)- and (2R,3S)-isomers.
as §2

[15] = biological target: T4, GluN1-4a/GluN2D Met763Lys NMDARs (Rattus norvegicus, UniProt P35439+Q62645, M763K); experiment: TEVC electrophysiology on oocytes expressing GluN1-4a/GluN2D Met763Lys; type: cell-based
T4 construct: expressed in transfected cells; host or cells: Xenopus laevis oocytes injected with cRNA
Text: as §1, §2

[16] = system: GluN2D; set-up: method as in Swanger et al., 2017; conditions: GluN2D expressed in mammalian cells; ref Swanger et al., 2017; cited from earlier work
[17] = system: GluN2A/2C-triheteromers; set-up: method as in Swanger et al, 2017; conditions: oocyte-based system; ref Swanger et al, 2017; cited from earlier work
[18] = biological target: T5, GluN1-4a/GluN2A NMDARs (Rattus norvegicus, UniProt P35439+Q00959); experiment: TEVC electrophysiology on Xenopus laevis oocytes expressing GluN1-4a/GluN2A; type: cell-based; conditions: Cheng–Prusoff from IC50 and L-glutamate EC50; 100 μM glycine, 1 or 3 μM L-glutamate
T5 construct: expressed in transfected cells; host or cells: Xenopus laevis oocytes injected with cRNA
Text: as §3, §2

[19] = biological target: T6, GluN1-4a/GluN2A NMDARs (Rattus norvegicus, UniProt Q00959); experiment: as above; type: cell-based; conditions: Ki GluN2A relative to Ki GluN2D (WT)
T6 construct: expressed in transfected cells; host or cells: Xenopus laevis oocytes injected with cRNA
Text: as §3, §2

[20] = biological target: GluA1 (Homo sapiens, UniProt P42261); experiment: Glutamate-stimulated Ca2+-influx fluorescence assay in HEK293 cells, GluA1; type: cell-based; conditions: for IC50: HEK293 cells, glutamate-stimulated Ca2+-influx
Procedure: (§4) HEK293 cell lines stably expressing homomeric glutamate receptors (GluA1, GluK1 and GluK2) were obtained from Eli Lilly and grown in DMEM (ThermoFisher) supplemented with 10% v/v fetal bovine serum (Sigma), 2 mM Glutamax™ (Gibco), 100 U/mL penicillin, 100 µg streptomycin and 250 ng amphotericin B (Sigma) in 5% CO2 at 37 °C. Cells were passaged using TrypLE (Gibco) as required before confluency and periodically treated with selection antibiotics (GluK1, GluK2 hygromycin B, 200 µg/mL; GluA1 geneticin™, 200 µg/mL).
(§5) Calcium influx fluorescence assay
(§6) 100k cells/well were seeded into a 96-well plate precoated with poly-L-lysine and incubated for 12-16 hours until fully confluent. The cell monolayer was washed twice with 100 µL Hanks Balanced Salt Solution supplemented with 5 mM CaCl2 and 20 mM HEPES (sHBSS), then incubated for 2-4 hours with 100 µL working solution of Ca6 dye (Molecular Devices) supplemented with a desensitization blocker (GluK1, GluK2 0.25 mg/mL concanavalin A, Sigma; GluA1 100 µM cyclothiazide, Sigma). The time resolved fluorescence was recorded in a Flexstation 3 instrument (Molecular Devices). For each individual reading, the initial fluorescence of the well was measured for 20 seconds, after which the desired concentration of […]
(§7) response is measured as the peak change in fluorescence upon addition of agonist. The viability of the cells was confirmed by determination of the concentration-response curve to the L-glutamate agonist and a standard antagonist for each plate. Readings of antagonists used the […]
(§8) Fluorescence traces were performed in […]
(§9) triplicate on each plate and Ki values were determined on a plate-by-plate basis. Separate experiments (n) were performed on different passages of cells. […]

[21] = biological target: GluK2 (Homo sapiens, UniProt Q13002); experiment: Glutamate-stimulated Ca2+-influx fluorescence assay in HEK293 cells, GluK2; type: cell-based; conditions: for IC50: HEK293 cells, glutamate-stimulated Ca2+-influx
Procedure: as §4, §5, §6, §7, §8, §9

[22] = TEVC, ref 1-3 (supplementary references)
[23] = normalized response at 30 µM compound
[24] = normalized response at 100 µM compound

Sequence of GluA1 (P42261 19-906): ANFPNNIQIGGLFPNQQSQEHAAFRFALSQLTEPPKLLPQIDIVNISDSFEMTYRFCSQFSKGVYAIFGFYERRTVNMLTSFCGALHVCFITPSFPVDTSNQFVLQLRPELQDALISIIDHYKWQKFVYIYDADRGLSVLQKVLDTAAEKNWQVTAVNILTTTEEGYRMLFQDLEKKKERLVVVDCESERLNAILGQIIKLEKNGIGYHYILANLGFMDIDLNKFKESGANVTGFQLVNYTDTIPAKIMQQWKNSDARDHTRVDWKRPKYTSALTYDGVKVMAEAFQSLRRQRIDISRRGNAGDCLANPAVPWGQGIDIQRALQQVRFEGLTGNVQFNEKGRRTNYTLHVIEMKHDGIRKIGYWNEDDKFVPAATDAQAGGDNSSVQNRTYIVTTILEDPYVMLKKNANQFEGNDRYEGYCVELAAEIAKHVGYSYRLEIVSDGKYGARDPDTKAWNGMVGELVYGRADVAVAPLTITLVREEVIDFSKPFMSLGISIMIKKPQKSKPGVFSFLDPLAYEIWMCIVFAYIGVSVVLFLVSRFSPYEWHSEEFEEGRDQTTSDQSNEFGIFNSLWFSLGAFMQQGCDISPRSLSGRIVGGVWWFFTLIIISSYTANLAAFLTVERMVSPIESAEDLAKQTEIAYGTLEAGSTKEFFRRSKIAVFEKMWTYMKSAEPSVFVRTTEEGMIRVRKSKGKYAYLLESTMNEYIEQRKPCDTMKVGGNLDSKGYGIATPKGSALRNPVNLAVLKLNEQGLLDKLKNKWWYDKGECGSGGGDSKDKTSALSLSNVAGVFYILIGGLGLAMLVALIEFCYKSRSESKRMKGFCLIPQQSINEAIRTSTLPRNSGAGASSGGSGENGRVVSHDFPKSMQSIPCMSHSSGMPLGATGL
T3 sequence (Q62645 28-1323, other chains not shown): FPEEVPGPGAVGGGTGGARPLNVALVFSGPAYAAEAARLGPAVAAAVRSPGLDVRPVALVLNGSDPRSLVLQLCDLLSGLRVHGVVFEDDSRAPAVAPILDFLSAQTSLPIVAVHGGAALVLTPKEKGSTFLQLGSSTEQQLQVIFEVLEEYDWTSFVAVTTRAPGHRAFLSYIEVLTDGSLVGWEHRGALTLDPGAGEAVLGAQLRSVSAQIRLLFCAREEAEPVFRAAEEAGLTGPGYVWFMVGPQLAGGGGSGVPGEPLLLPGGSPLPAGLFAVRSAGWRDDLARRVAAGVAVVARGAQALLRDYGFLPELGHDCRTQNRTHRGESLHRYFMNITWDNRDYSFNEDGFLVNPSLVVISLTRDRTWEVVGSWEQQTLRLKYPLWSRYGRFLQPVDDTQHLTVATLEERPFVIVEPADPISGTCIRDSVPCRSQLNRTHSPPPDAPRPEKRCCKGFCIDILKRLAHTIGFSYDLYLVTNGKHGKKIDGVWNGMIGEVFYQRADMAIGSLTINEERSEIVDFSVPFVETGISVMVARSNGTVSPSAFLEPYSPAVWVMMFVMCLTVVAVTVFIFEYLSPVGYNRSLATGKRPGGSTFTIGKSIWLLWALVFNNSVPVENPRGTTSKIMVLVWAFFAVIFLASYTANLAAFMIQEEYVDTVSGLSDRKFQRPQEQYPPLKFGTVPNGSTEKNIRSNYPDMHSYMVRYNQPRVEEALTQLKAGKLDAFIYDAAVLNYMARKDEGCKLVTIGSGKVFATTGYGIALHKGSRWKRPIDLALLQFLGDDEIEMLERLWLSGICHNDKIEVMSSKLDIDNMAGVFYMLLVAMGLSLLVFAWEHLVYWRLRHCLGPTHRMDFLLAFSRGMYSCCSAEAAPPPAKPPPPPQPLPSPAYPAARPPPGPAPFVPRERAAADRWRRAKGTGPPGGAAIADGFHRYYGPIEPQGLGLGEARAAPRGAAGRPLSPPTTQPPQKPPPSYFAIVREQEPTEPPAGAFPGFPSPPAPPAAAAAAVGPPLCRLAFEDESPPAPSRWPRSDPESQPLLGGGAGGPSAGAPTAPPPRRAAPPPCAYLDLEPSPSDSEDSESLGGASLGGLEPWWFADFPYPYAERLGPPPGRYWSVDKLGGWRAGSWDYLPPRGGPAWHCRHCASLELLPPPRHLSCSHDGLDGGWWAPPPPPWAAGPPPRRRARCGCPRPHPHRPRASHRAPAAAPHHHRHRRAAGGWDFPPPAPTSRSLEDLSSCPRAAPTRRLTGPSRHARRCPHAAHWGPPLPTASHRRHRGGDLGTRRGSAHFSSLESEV
Sequence of GluK2 (Q13002 32-908): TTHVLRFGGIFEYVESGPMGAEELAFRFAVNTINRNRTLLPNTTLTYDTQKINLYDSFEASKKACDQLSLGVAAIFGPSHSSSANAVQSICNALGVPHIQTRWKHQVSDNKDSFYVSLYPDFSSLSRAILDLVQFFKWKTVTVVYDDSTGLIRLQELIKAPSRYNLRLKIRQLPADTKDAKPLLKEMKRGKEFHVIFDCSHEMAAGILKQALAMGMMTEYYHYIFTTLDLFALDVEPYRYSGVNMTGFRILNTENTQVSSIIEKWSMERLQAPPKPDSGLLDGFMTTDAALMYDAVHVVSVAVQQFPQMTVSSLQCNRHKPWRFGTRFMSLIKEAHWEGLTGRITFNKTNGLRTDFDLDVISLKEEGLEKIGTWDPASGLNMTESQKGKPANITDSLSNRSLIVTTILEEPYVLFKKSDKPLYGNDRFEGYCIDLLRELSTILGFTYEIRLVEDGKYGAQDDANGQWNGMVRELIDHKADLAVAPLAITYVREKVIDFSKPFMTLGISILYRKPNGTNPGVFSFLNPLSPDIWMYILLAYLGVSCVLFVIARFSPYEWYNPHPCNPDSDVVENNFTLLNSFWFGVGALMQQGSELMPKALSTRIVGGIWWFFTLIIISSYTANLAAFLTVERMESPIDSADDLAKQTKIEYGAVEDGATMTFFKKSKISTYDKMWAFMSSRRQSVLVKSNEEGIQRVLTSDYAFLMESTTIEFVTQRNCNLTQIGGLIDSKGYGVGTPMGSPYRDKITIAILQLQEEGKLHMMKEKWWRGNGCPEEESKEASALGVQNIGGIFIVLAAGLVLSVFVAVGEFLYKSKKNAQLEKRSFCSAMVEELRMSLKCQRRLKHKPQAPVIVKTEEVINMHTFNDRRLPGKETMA
T5 sequence (Q00959 23-1464, other chains not shown): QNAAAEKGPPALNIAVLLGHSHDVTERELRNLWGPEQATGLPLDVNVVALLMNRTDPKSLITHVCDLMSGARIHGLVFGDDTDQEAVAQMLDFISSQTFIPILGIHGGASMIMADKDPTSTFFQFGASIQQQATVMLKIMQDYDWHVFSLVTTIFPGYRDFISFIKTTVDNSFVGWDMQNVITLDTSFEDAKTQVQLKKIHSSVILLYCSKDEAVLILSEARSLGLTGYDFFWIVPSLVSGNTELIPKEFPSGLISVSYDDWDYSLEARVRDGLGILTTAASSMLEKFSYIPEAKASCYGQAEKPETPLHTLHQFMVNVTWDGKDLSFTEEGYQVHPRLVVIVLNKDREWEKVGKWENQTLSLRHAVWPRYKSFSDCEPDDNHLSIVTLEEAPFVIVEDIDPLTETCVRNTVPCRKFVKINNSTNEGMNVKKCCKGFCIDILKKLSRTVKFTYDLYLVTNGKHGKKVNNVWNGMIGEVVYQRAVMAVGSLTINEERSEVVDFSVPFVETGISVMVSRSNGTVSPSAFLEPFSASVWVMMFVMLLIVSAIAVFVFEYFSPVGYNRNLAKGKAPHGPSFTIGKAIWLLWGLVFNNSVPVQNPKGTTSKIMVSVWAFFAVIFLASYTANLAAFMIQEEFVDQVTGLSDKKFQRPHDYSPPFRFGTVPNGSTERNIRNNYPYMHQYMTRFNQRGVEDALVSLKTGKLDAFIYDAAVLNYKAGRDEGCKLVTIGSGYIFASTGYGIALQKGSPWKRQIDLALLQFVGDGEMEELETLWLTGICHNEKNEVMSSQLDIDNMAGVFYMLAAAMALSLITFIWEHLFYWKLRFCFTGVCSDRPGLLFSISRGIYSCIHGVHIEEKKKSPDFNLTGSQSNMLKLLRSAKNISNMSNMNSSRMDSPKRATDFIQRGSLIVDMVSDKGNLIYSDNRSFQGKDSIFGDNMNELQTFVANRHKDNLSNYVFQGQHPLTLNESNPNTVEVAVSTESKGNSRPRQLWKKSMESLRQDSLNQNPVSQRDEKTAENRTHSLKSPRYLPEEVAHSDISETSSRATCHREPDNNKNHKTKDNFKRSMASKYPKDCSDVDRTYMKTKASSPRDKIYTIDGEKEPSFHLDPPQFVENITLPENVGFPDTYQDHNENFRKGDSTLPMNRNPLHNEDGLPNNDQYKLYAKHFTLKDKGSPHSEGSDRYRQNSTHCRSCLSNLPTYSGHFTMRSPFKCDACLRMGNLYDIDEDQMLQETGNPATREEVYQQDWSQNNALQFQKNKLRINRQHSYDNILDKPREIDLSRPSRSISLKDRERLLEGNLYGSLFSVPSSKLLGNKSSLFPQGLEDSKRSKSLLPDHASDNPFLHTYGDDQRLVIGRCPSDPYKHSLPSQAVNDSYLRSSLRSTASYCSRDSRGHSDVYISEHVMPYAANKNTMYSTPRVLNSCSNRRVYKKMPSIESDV
T2 sequence (Q62645 28-1323 K766R, other chains not shown): as the sequence (Q62645 28-1323, other chains not shown) above, with K739R counted along it
T1 sequence (Q62645 28-1323 M763K/K766R, other chains not shown): as the sequence (Q62645 28-1323, other chains not shown) above, with M736K, K739R counted along it
T4 sequence (Q62645 28-1323 M763K, other chains not shown): as the sequence (Q62645 28-1323, other chains not shown) above, with M736K counted along it

Q: What does the source list for `O=C(O)[C@@H]1[C@H](C(=O)O)NCCN1C(=O)c1ccc2c(ccc3ccccc32)c1` (relative stereo) [PPDA, (2S*,3R*)-1-(phenanthrene-2-carbonyl)piperazine-2,3-dicarboxylic acid]?
A: increase of potency compared with the WT GluN2A [1]: fivefold; Ki ([2]; GluN2A, PPDA values ref 27): ~0.5 µM

Q: Which inhibition of triheteromers [3] does the source give for `O=C(O)[C@H]1NCCN(C(=O)c2ccc3ccc4ccccc4c3c2)[C@H]1C(=O)O` (relative stereo) [UBP141, (2R*,3S*)-1-(phenanthrene-3-carbonyl)piperazine-2,3-dicarboxylic acid] here?
A: inhibits

Q: What about the GluN2C/2D selectivity [4] of the same compound?
A: up to approximately tenfold

Q: What does the source list for `O=C(O)[C@H]1NCCN(C(=O)c2ccc3cc(Br)c4ccccc4c3c2)[C@H]1C(=O)O` (relative stereo) [UBP145, (2R*,3S*)-1-(9-bromophenanthrene-3-carbonyl)piperazine-2,3-dicarboxylic acid]?
A: block of triheteromers [5]: blocks; effect on tPA neurotoxicity [6]: blocked neurotoxicity of co-applied tissue plasminogen activator (tPA); GluN2C/2D selectivity [4]: up to approximately tenfold

Q: Which “fold higher potency compared to the (+)-isomer” value ([7]; GluN2D-containing NMDARs, ref Jespersen et al, 2014) does the source give for `O=C(O)C1NCCN(C(=O)c2ccc3c(ccc4ccccc43)c2)C1C(=O)O` [(2S,3R)-PPDA] here?
A: 7 fold

Q: And the “fold higher potency compared to the (+)-isomer” value ([4]; GluN2C and GluN2D-containing NMDARs, ref Irvine et al, 2012)?
A: ~ 50 fold

Q: What about the “potency of (2S,3R)-PPDA compared with (2R,3S)-PPDA” value [4] of the same compound?
A: approximately tenfold higher potency

Q: And the “fold higher potency than the racemate” value ([4]; on GluN2C and GluN2D, ref 29 (Irvine et al., 2012))?
A: about 1.4 fold

Q: What about the Ki [8] of the same compound?
A: 7.85 µM

Q: What about the Ki [9] of the same compound?
A: 1.17 µM

Q: With `Cc1ccc2[nH]c(=O)c(C3=NN(C(=O)CCC(=O)O)C(c4ccc(Br)cc4)C3)c(-c3ccccc3)c2c1` (centres unmarked) [DQP-1105] as the compound, how does the “GluN2C/2D preference over GluN2A/2B” value [4] read?
A: ~ 50 fold

Q: For `O=C(O)Cc1cccnc1C(=O)O` [HQA, homoquinolinic acid], which EC50 [10] is on record?
A: 10 to 20 µM

Q: What about the EC50 [7, 22] of the same compound?
A: 30 to 90 µM

Q: What about the EC50 [11, 22] of the same compound?
A: 30 to 90 µM

Q: What about the EC50 [2, 22] of the same compound?
A: 10 to 20 µM

Q: Which results are given for `N[C@@H](CCC(=O)O)C(=O)O` [L-glutamate, reference compound]?
A: EC50 [12]: 0.17 ± 0.02 µM; EC50 [13]: 0.13 ± 0.02 µM; EC50 [14]: 0.17 ± 0.01 µM; EC50 [15]: 0.27 ± 0.02 µM

Q: What does the source list for `CCN(CC)C(=O)Oc1ccc(C(=O)Nc2cccc3cc[nH]c23)cc1` [NAB-14]?
A: IC50 [16]: 0.58 µM and 0.584 µM; IC50 [17]: ~15 µM; IC50 ([7]; GluN2D expressed in Xenopus oocytes, ref Swanger et al., 2017): 2.2 µM; GluN2C/2D preference over GluN2A/2B [4]: about 800 fold; selectivity for recombinant GluN2C/GluN2D over GluN2A/GluN2B ([4]; reviewer's statement in peer review file, ref Swanger A. et al (2007)): > 800 fold; IC50 ([11]; GluN2C-diheteromers, oocyte-based system, ref Swanger et al, 2017): 5 µM

Q: With `COc1ccc2nc(/C=C/c3cccc([N+](=O)[O-])c3)n(-c3ccc(C(=O)O)cc3)c(=O)c2c1` [QNZ46] as the compound, how does the “GluN2C/2D preference over GluN2A/2B” value [4] read?
A: ~ 50 fold

Q: Which results are given for `CC(Cc1ccc2c(ccc3cc(C(=O)N4CCN[C@H](C(=O)O)[C@@H]4C(=O)O)ccc32)c1)C(=O)O` (some centres unmarked) [UBP1701]?
A: Ki [18]: 4.49 ± 0.46 µM; fold difference of Ki vs. 2D (GluN2A) [19]: ~ 45 fold; IC50 [20]: > 100 µM; Mean Response [20, 23]: 92.5%; Mean Response [20, 24]: 91.6%; Ki ([14]; Ki, Cheng–Prusoff from IC50 and L-glutamate EC50, 100 μM glycine, 1 or 3 μM L-glutamate): 0.1 ± 0.01 µM; IC50 [21]: > 100 µM; Mean Response [21, 23]: 96.9%; Mean Response [21, 24]: 96.1%

Q: Which Ki [18] does the source give for `O=C(O)CCCCc1ccc2c(ccc3cc(C(=O)N4CCNC(C(=O)O)C4C(=O)O)ccc32)c1` (centres unmarked) [UBP1702] here?
A: 6.75 ± 0.75 µM

Q: And the “fold difference of Ki vs. 2D (GluN2A)” value [19]?
A: ~ 52 fold

Q: And the IC50 [20]?
A: > 100 µM

Q: And the “Mean Response” value [20, 23]?
A: 86.5%

Q: What about the “Mean Response” value [20, 24] of the same compound?
A: 97.4%

Q: What about the Ki ([14]; read-out: Ki) of the same compound?
A: 0.13 ± 0.01 µM

Q: And the IC50 [21]?
A: > 100 µM

Q: What about the “Mean Response” value [21, 23] of the same compound?
A: 94.5%

Q: And the “Mean Response” value [21, 24]?
A: 96.0%
